Values of other authors in patent US12569529B2, “Natural combination products and methods for regulation of kidney and excretory system function” (Pure Care Pro LLC, priority 2018, dated 2026).

Key:
[1] = tested on: kidney proximal tubular cells; conditions: kidney proximal tubular cells in culture

| Molecule | ADMA levels (patients with CKD) | cisplatin-induced reactive oxygen species (ROS) [1] | cell viability ([1]; cisplatin) |
| --- | --- | --- | --- |
| vitamin E | reductions | – | – |
| Cc1c(C)c2c(c(C)c1O)CC[C@@](C)(CCC[C@H](C)CCC[C@H](C)CCCC(C)C)O2 [α-tocopherol] | – | decreased | increased |
